# Measurements published in PMC4907197 (Applied and Environmental Microbiology, 2016).
# Assays:
# [1] = molecular target: T1, KES23460 (Pseudomonas sp. AAC, UniProt A0ABD3YRH9); assay: KES23458-coupled NADH formation, A340; assay type: biochemical; settings: NAD, pH […]
# T1 construct: gene FG99_15390
# T1 sequence (A0ABD3YRH9 1-498): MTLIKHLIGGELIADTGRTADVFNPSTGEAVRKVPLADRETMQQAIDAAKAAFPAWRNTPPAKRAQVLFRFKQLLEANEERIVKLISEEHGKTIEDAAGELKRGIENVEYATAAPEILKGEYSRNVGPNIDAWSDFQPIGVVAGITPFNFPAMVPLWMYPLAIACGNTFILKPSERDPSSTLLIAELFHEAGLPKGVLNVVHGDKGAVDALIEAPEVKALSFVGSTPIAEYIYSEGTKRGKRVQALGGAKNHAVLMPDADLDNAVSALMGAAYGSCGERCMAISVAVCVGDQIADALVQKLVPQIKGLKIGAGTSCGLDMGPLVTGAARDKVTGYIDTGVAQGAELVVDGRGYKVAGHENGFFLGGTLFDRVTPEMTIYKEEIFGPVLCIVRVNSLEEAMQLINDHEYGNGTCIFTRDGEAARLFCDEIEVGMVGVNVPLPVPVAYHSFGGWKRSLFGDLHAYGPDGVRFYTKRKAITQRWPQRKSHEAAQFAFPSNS
# [2] = molecular target: T2, KES23458 (Pseudomonas sp. AAC, UniProt Z9SKW1E3X5); assay: X-ray crystallography; mass spectrometry; assay type: binding; settings: crystal density atypical of PLP (PLP'), no aldimine seen; MS shows aldimine-bound unmodified PLP; covalent (Lys288 presumed); native structure 1.24 Å
# T2 construct: full length minus N-terminal Met by mass spectrometry; homodimer; phospho-His31 and phospho-His360 observed; deconvoluted MS peak 50,399 (reduced with PLP)
# T2 sequence (Z9SKW1E3X5 22-468): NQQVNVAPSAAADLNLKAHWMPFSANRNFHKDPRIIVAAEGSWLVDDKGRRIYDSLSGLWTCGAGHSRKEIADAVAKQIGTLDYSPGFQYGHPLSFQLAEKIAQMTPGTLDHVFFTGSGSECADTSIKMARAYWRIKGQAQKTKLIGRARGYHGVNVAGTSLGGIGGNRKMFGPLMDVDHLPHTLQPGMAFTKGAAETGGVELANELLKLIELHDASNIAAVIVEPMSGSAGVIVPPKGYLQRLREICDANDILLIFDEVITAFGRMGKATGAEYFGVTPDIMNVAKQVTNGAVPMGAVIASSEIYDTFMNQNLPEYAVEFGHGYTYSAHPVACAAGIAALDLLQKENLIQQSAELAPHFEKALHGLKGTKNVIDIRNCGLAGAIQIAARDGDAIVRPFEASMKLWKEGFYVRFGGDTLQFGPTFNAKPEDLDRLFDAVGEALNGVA
smiles,measurement,setting,value
CC(C)(COP(=O)(O)OP(=O)(O)OC[C@H]1O[C@@H](n2cnc3c(N)ncnc32)[C@H](O)[C@@H]1OP(=O)(O)O)[C@@H](O)C(=O)NCCC(=O)NCCS [CoA],"KES23458-coupled NADH formation, A340",[1]; co-substrate malonate semialdehyde formed in situ,"In the presence of CoA, the transthioesterification step was observed to be significantly faster"
Cc1ncc(COP(=O)(O)O)c(C=O)c1O [PLP],X-ray crystallography; mass spectrometry,[2],with the mass gain corresponding to aldimine-bound unmodified PLP
O=CCC(=O)O [malonic acid semialdehyde],"KES23458-coupled NADH formation, A340","[1]; formed in situ from […] beta-alanine and pyruvate by KES23458, with or without CoA","significant activity with only one of the substrates tested, malonic acid semialdehyde"
